Assay results from ChEMBL document CHEMBL1201862, “PubChem BioAssay data set” (2004).
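Briefly, cells in 96-well plates were exposed to five compound concentrations for 48 h, and endpoints were estimated by linear interpolation. Abbreviation: GI50, concentration required for 50% inhibition of growth.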 Activity calls are given as the source filed them. Rule as the data show it: active = GI50 up to about 1.1 µM and inactive = higher.

How the values were obtained:
Test in all cases: DTP human tumour cell line panel, 48 h
NCI/ADR-RES = system: NCI/ADR-RES
UACC-257 = system: UACC-257
OVCAR-4 = system: OVCAR-4
SK-MEL-2 = system: SK-MEL-2
HL-60 = system: HL-60
EKVX = system: EKVX
U-251 = system: U-251
NCI-H522 = system: NCI-H522
HCT-116 = system: HCT-116
ACHN = system: ACHN
MDA-N = system: MDA-N
HCC 2998 = system: HCC 2998
NCI-H226 = system: NCI-H226
SF-295 = system: SF-295
MDA-MB-231 = system: MDA-MB-231
TK-10 = system: TK-10
KM12 = system: KM12
SK-MEL-28 = system: SK-MEL-28
UACC-62 = system: UACC-62
A549 = system: A549

| Structure (SMILES) | GI50 (NCI/ADR-RES) | GI50 (UACC-257) | GI50 (OVCAR-4) | GI50 (SK-MEL-2) | GI50 (HL-60) | GI50 (EKVX) | GI50 (U-251) | GI50 (NCI-H522) | GI50 (HCT-116) | GI50 (ACHN) | GI50 (MDA-N) | GI50 (HCC 2998) | GI50 (NCI-H226) | GI50 (SF-295) | GI50 (MDA-MB-231) | GI50 (TK-10) | GI50 (KM12) | GI50 (SK-MEL-28) | GI50 (UACC-62) | GI50 (A549) |
| --- | --- | --- | --- | --- | --- | --- | --- | --- | --- | --- | --- | --- | --- | --- | --- | --- | --- | --- | --- | --- |
| O=C1/C(=C/c2ccc(Cl)cc2)N=C(c2ccccc2)N1c1nc2ccccc2s1 | 34 µM (inactive) | 35.6 µM (inactive) | 53.1 µM (inactive) | 28.3 µM (inactive) | 4.03 µM (inactive) | > 100 µM (inactive) | 42.8 µM (inactive) | 24.4 µM (inactive) | 40.7 µM (inactive) | 62.5 µM (inactive) | 39 µM (inactive) | 42.7 µM (inactive) | 49.7 µM (inactive) | 40.4 µM (inactive) | 67.8 µM (inactive) | 56.2 µM (inactive) | 61.9 µM (inactive) | 52.6 µM (inactive) |  |  |
| C/C1=C\[C@H](C)C[C@H](C)OC(=O)C[C@H](c2ccc(O)cc2)NC(=O)[C@@H](Cc2c(Br)[nH]c3ccccc23)N(C)C(=O)[C@H](C)NC(=O)[C@@H](C)C1 [JASPAMIDE] | 0.367 µM (active) | 0.11 µM (active) | 0.173 µM (active) |  | 0.132 µM (active) | 0.275 µM (active) | 0.243 µM (active) | 0.203 µM (active) | 0.196 µM (active) | 0.199 µM (active) | 0.0834 µM (active) | 0.0499 µM (active) | 0.245 µM (active) | 0.259 µM (active) | 0.0287 µM (active) | 0.294 µM (active) | 0.264 µM (active) | 0.124 µM (active) | 0.219 µM (active) | 0.172 µM (active) |
| CC(=O)O[C@@H]1[C@H]2[C@@H](OC(=O)c3ccccc3)[C@@H](C)C[C@]2(O)[C@H](OC(C)=O)[C@@]2(C)[C@@H]3CC(C)(C)C(=O)[C@]3(OC(C)=O)C[C@@]12C | > 25 µM (inactive) | > 25 µM (inactive) | > 25 µM (inactive) | > 25 µM (inactive) | 1.35 µM (inactive) | > 25 µM (inactive) | > 25 µM (inactive) | > 25 µM (inactive) | > 25 µM (inactive) | > 25 µM (inactive) | 8.91 µM (inactive) | 6.9 µM (inactive) | > 25 µM (inactive) | 7 µM (inactive) | > 25 µM (inactive) | > 25 µM (inactive) | > 25 µM (inactive) |  | > 25 µM (inactive) |  |
| C/C(=C\c1csc(C)n1)[C@@H]1C[C@@H]2O[C@@H]2CCC[C@H](C)[C@H](O)[C@@H](C)C(=O)C(C)(C)[C@@H](O)CC(=O)O1 [EPOTHILONE A] | 0.000113 µM (active) | < 0.0001 µM (active) | 0.124 µM (active) | < 0.0001 µM (active) | < 0.0001 µM (active) | < 0.0001 µM (active) | < 0.0001 µM (active) | < 0.0001 µM (active) | < 0.0001 µM (active) | < 0.0001 µM (active) | < 0.0001 µM (active) | < 0.0001 µM (active) | < 0.0001 µM (active) | < 0.0001 µM (active) | < 0.0001 µM (active) | 0.0167 µM (active) | < 0.0001 µM (active) |  | < 0.0001 µM (active) | < 0.0001 µM (active) |
| COC(=O)C1OC(O[C@H]2CC[C@]3(C)[C@H]4CC=C5[C@@H]6CC(C)(C)CC[C@]6(C(=O)OC)[C@H](O)C[C@@]5(C)[C@]4(C)CC[C@H]3C2(C)C)C(O)C(O)C1O (stereo partly specified) | 12.2 µM (inactive) | 15.3 µM (inactive) | 5.68 µM (inactive) | 15.1 µM (inactive) | 3.37 µM (inactive) | 7.96 µM (inactive) | 11.6 µM (inactive) | 1.57 µM (inactive) | 4.4 µM (inactive) | 11.5 µM (inactive) | 12.2 µM (inactive) | 2.7 µM (inactive) | 15 µM (inactive) | 10.4 µM (inactive) | 9.33 µM (inactive) |  | 1.67 µM (inactive) | 11.1 µM (inactive) | 12.5 µM (inactive) | 4.08 µM (inactive) |
| Clc1ccc(OCc2nnc(CCCCCCCCc3nnc(COc4ccc(Cl)cc4)o3)o2)cc1 | > 100 µM (inactive) | > 100 µM (inactive) | > 100 µM (inactive) | > 100 µM (inactive) |  | > 100 µM (inactive) | 29.4 µM (inactive) | 31.8 µM (inactive) | 10.5 µM (inactive) | > 100 µM (inactive) | > 100 µM (inactive) | > 100 µM (inactive) | > 100 µM (inactive) | > 100 µM (inactive) | 48 µM (inactive) | > 100 µM (inactive) | > 100 µM (inactive) | > 100 µM (inactive) | > 100 µM (inactive) | 72.1 µM (inactive) |
| O=[N+]([O-])C(=C(N1CCCCC1)N1CCCCC1)/C(Cl)=C(\Cl)Br | 27.2 µM (inactive) | 23.8 µM (inactive) | 24 µM (inactive) |  | 15.2 µM (inactive) | 16.4 µM (inactive) | 18.7 µM (inactive) | 18.1 µM (inactive) | 14.2 µM (inactive) | 24.9 µM (inactive) | 29.2 µM (inactive) | 17.5 µM (inactive) | 20.8 µM (inactive) | 54.5 µM (inactive) | 27.2 µM (inactive) | 25.5 µM (inactive) | 23.1 µM (inactive) | 19.5 µM (inactive) | 10.7 µM (inactive) | 32.7 µM (inactive) |
